Test results published in PubChem BioAssay AID330 (DTP/NCI, 2004).
Several values for one entry are separate records, joined by “and”; a condition that tells them apart may be missing. Equal entries are not always repeated. Toxic doses and inconclusive results are not listed.

Test system: P388 leukemia ip, CD2F1 mice, survival T/C
Experiment: NCI In Vivo Anticancer Drug Screen. Data for tumor model P388 Leukemia (intraperitoneal) in CD2F1 (CDF1) mice
Details: endpoint: median survival time, higher = longer survival
Procedure, shortened: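 Mice carrying the transplanted tumor received test compound or vehicle. Survival was recorded in each group, and the value is the treated-group measurement divided by that of the vehicle-treated control group.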

[1] = dose: 25.0 mg/kg/injection, schedule: Q01DX005 (ip), vehicle: Klucel (hydroxypropylcellulose) (HPC)
[2] = dose: 100.0 mg/kg/injection, schedule: Q01DX005 (ip), vehicle: Klucel (hydroxypropylcellulose) (HPC)
[3] = dose: 100.0 mg/kg/injection, schedule: Q01DX009 (ip), vehicle: saline
[4] = dose: 200.0 mg/kg/injection, schedule: Q01DX009 (ip), vehicle: saline
[5] = dose: 50.0 mg/kg/injection, schedule: Q01DX005 (ip), vehicle: Klucel (hydroxypropylcellulose) (HPC)
[6] = dose: 6.25 mg/kg/injection, schedule: Q01DX009 (ip), vehicle: saline with Tween-80
[7] = dose: 12.5 mg/kg/injection, schedule: Q01DX009 (ip), vehicle: saline with Tween-80
[8] = dose: 25.0 mg/kg/injection, schedule: Q01DX009 (ip), vehicle: saline with Tween-80
[9] = dose: 50.0 mg/kg/injection, schedule: Q01DX009 (ip), vehicle: saline with Tween-80
[10] = dose: 50.0 mg/kg/injection, schedule: Q01DX009 (ip), vehicle: Klucel (hydroxypropylcellulose) (HPC)
[11] = dose: 100.0 mg/kg/injection, schedule: Q01DX009 (ip), vehicle: Klucel (hydroxypropylcellulose) (HPC)
[12] = dose: 50.0 mg/kg/injection, schedule: Q01DX009 (ip), vehicle: saline
[13] = dose: 60.0 mg/kg/injection, schedule: Q01DX005 (ip), vehicle: saline with Tween-80
[14] = dose: 120.0 mg/kg/injection, schedule: Q01DX005 (ip), vehicle: saline with Tween-80
[15] = dose: 240.0 mg/kg/injection, schedule: Q01DX005 (ip), vehicle: saline with Tween-80
[16] = dose: 50.0 mg/kg/injection, schedule: Q01DX005 (ip), vehicle: saline with Tween-80
[17] = dose: 100.0 mg/kg/injection, schedule: Q01DX005 (ip), vehicle: saline with Tween-80
[18] = dose: 200.0 mg/kg/injection, schedule: Q01DX005 (ip), vehicle: saline with Tween-80

## COC(=O)[C@H]1[C@H]2C[C@@H]3c4[nH]c5ccccc5c4CCN3C[C@H]2C[C@@H](OC(=O)c2cc(OC)c(OC)c(OC)c2)[C@@H]1OC
dose: 3.13 mg/kg/injection, schedule: Q01DX005 (ip), vehicle: saline with Tween-80
  T/C: 105 % of control and 123 % of control
dose: 6.25 mg/kg/injection, schedule: Q01DX005 (ip), vehicle: saline with Tween-80
  T/C: 118 % of control (2×) and 124 % of control
dose: 12.5 mg/kg/injection, schedule: Q01DX005 (ip), vehicle: saline with Tween-80
  T/C: 114 % of control and 118 % of control and 124 % of control
dose: 25.0 mg/kg/injection, schedule: Q01DX005 (ip), vehicle: saline with Tween-80
  T/C: 111 % of control and 94 % of control and 97 % of control

## Cc1c2c(nn1C)CC(C)(C)OC2=O
dose: 100.0 mg/kg/injection, schedule: Q01DX001 (ip), vehicle: Klucel (hydroxypropylcellulose) (HPC)
  T/C: 95 % of control
dose: 200.0 mg/kg/injection, schedule: Q01DX001 (ip), vehicle: Klucel (hydroxypropylcellulose) (HPC)
  T/C: 100 % of control
dose: 400.0 mg/kg/injection, schedule: Q01DX001 (ip), vehicle: Klucel (hydroxypropylcellulose) (HPC)
  T/C: 101 % of control

## COC(=O)c1ccc(N=NN(C)CN=[N+]=[N-])cc1
dose: 12.5 mg/kg/injection, schedule: Q01DX005 (ip), vehicle: Klucel (hydroxypropylcellulose) (HPC)
  T/C: 106 % of control
[1]
  T/C: 124 % of control
[2]
  T/C: 160 % of control and 172 % of control

## Cc1nc2c([N+](=O)[O-])c(Nc3ccccc3)c([N+](=O)[O-])cc2[nH]1
dose: 25.0 mg/kg/injection, schedule: Q04DX003 (ip), vehicle: saline with Tween-80
  T/C: 92 % of control
dose: 50.0 mg/kg/injection, schedule: Q04DX003 (ip), vehicle: saline with Tween-80
  T/C: 101 % of control
dose: 100.0 mg/kg/injection, schedule: Q04DX003 (ip), vehicle: saline with Tween-80
  T/C: 104 % of control and 90 % of control

## COC1=CC(=O)C(Cc2ccc(OC)cc2)=CC1=O
dose: 2.5 mg/kg/injection, schedule: Q01DX009 (ip), vehicle: saline with Tween-80
  T/C: 100 % of control
dose: 5.0 mg/kg/injection, schedule: Q01DX009 (ip), vehicle: saline with Tween-80
  T/C: 100 % of control
dose: 10.0 mg/kg/injection, schedule: Q01DX009 (ip), vehicle: saline with Tween-80
  T/C: 100 % of control

## C=C1C(=O)OC2C1CC/C(C)=C/CCC1(C)OC21 (configuration not stated)
dose: 8.75 mg/kg/injection, schedule: Q01DX009 (ip), vehicle: Klucel (hydroxypropylcellulose) (HPC)
  T/C: 106 % of control
dose: 17.5 mg/kg/injection, schedule: Q01DX009 (ip), vehicle: Klucel (hydroxypropylcellulose) (HPC)
  T/C: 106 % of control

## CC(C)COC1OCCCC1C(OCC(C)C)C(C)C (configuration not stated)
[3]
  T/C: 108 % of control
[4]
  T/C: 113 % of control
dose: 400.0 mg/kg/injection, schedule: Q01DX009 (ip), vehicle: saline
  T/C: 99 % of control

## O=S(O)OC1(O)CCCCC1
dose: 100.0 mg/kg/injection, schedule: Q04DX002 (ip), vehicle: saline
  T/C: 110 % of control
dose: 200.0 mg/kg/injection, schedule: Q04DX002 (ip), vehicle: saline
  T/C: 95 % of control
dose: 400.0 mg/kg/injection, schedule: Q04DX002 (ip), vehicle: saline
  T/C: 100 % of control

## CCOC(=O)C1=CNc2c(C#N)cnn2C12C(=O)Oc1ccc(OC)cc12 (configuration not stated)
[1]
  T/C: 109 % of control
[5]
  T/C: 105 % of control
[2]
  T/C: 105 % of control
dose: 200.0 mg/kg/injection, schedule: Q01DX005 (ip), vehicle: Klucel (hydroxypropylcellulose) (HPC)
  T/C: 105 % of control

## O=NNc1cnc2ccccc2n1
dose: 3.12 mg/kg/injection, schedule: Q01DX009 (ip), vehicle: water
  T/C: 106 % of control
dose: 6.25 mg/kg/injection, schedule: Q01DX009 (ip), vehicle: water
  T/C: 103 % of control
dose: 12.5 mg/kg/injection, schedule: Q01DX009 (ip), vehicle: water
  T/C: 106 % of control and 112 % of control
dose: 25.0 mg/kg/injection, schedule: Q01DX009 (ip), vehicle: water
  T/C: 120 % of control and 121 % of control
dose: 50.0 mg/kg/injection, schedule: Q01DX009 (ip), vehicle: water
  T/C: 113 % of control and 87 % of control

## CN(C)c1nc(N(C)C)nc(N(C)C)n1
[6]
  T/C: 110 % of control
[7]
  T/C: 105 % of control and 108 % of control and 96 % of control
dose: 20.0 mg/kg/injection, schedule: Q01DX009 (ip), vehicle: saline with Tween-80
  T/C: 108 % of control
dose: 25.0 mg/kg/injection, schedule: Q01DX001 (ip), vehicle: Klucel (hydroxypropylcellulose) (HPC)
  T/C: 103 % of control and 104 % of control
[8]
  T/C: 98 % of control and 103 % of control and 107 % of control
dose: 25.0 mg/kg/injection, schedule: Q04DX002 (ip), vehicle: Klucel (hydroxypropylcellulose) (HPC)
  T/C: 100 % of control and 112 % of control
dose: 25.0 mg/kg/injection, schedule: Q04DX003 (ip), vehicle: Klucel (hydroxypropylcellulose) (HPC)
  T/C: 110 % of control and 115 % of control
dose: 40.0 mg/kg/injection, schedule: Q01DX009 (ip), vehicle: saline with Tween-80
  T/C: 109 % of control
[9]
  T/C: 104 % of control and 109 % of control (2×)
dose: 75.0 mg/kg/injection, schedule: Q01DX005 (ip), vehicle: Klucel (hydroxypropylcellulose) (HPC)
  T/C: 105 % of control
dose: 80.0 mg/kg/injection, schedule: Q01DX009 (ip), vehicle: saline with Tween-80
  T/C: 111 % of control
dose: 100.0 mg/kg/injection, schedule: Q01DX009 (ip), vehicle: saline with Tween-80
  T/C: 114 % of control and 119 % of control and 97 % of control
dose: 150.0 mg/kg/injection, schedule: Q01DX005 (ip), vehicle: Klucel (hydroxypropylcellulose) (HPC)
  T/C: 105 % of control
dose: 160.0 mg/kg/injection, schedule: Q01DX009 (ip), vehicle: saline with Tween-80
  T/C: 118 % of control
dose: 200.0 mg/kg/injection, schedule: Q01DX009 (ip), vehicle: saline with Tween-80
  T/C: 108 % of control

## S=C1NC2(CCCCC2)NC12CCCCC2
[10]
  T/C: 86 % of control
[11]
  T/C: 93 % of control
dose: 200.0 mg/kg/injection, schedule: Q01DX009 (ip), vehicle: Klucel (hydroxypropylcellulose) (HPC)
  T/C: 98 % of control
dose: 400.0 mg/kg/injection, schedule: Q01DX009 (ip), vehicle: Klucel (hydroxypropylcellulose) (HPC)
  T/C: 93 % of control

## NC(=O)CSc1ncnc2nc[nH]c12
[12]
  T/C: 97 % of control
[3]
  T/C: 100 % of control
[4]
  T/C: 102 % of control

## CC(C)(C)C1CCC(NC(=O)c2ccccc2)CC1 (configuration not stated)
dose: 3.13 mg/kg/injection, schedule: Q01DX009 (ip), vehicle: saline with Tween-80
  T/C: 99 % of control
[6]
  T/C: 99 % of control
[7]
  T/C: 93 % of control
[8]
  T/C: 99 % of control

## COc1cccc(N2N=NCC2O)c1 (configuration not stated)
[13]
  T/C: 104 % of control
[14]
  T/C: 102 % of control
[15]
  T/C: 104 % of control

## COc1ccc(/C=N/NC(=O)COCC(=O)N/N=C/c2ccc(OC)cc2)cc1
[16]
  T/C: 100 % of control
[17]
  T/C: 88 % of control
[18]
  T/C: 91 % of control

## COc1ccc(NS(=O)(=O)c2ccc(N=Cc3c4ccccc4nc4cc(Cl)ccc34)cc2)nn1
[13]
  T/C: 91 % of control
[14]
  T/C: 90 % of control
[15]
  T/C: 87 % of control

## CC(=O)C1=C(O)C(=O)N(c2ccccc2)C1=O
[16]
  T/C: 97 % of control
[17]
  T/C: 102 % of control
[18]
  T/C: 100 % of control

## O=S1Nc2ccccc2[C@H]2[C@@H]1[C@H]1O[C@@H]2c2ccccc21 (some centres not stated)
[5]
  T/C: 112 % of control
[2]
  T/C: 105 % of control
dose: 240.0 mg/kg/injection, schedule: Q01DX005 (ip), vehicle: Klucel (hydroxypropylcellulose) (HPC)
  T/C: 101 % of control

## CCOS(=O)(=O)CCl
[7]
  T/C: 106 % of control
[8]
  T/C: 100 % of control
[9]
  T/C: 107 % of control and 112 % of control

## O=C(Sc1ccccc1)C1CC=CCC1 (configuration not stated)
[10]
  T/C: 109 % of control
[11]
  T/C: 105 % of control

## CCN(CC)CCOC1C=C(C)C2CC1C2(C)C (configuration not stated)
dose: 50.0 mg/kg/injection, schedule: Q01DX005 (ip), vehicle: saline
  T/C: 101 % of control
dose: 100.0 mg/kg/injection, schedule: Q01DX005 (ip), vehicle: saline
  T/C: 101 % of control

## CC(C)(NC(=O)OC12CC3CC(CC(C3)C1)C2)C(=O)O
[13]
  T/C: 109 % of control
[14]
  T/C: 104 % of control
[15]
  T/C: 98 % of control

## COC(=O)C1=[N+]([O-])OC(C(=O)OC)C1c1ccc(OC)cc1 (configuration not stated)
[16]
  T/C: 97 % of control
[17]
  T/C: 97 % of control
[18]
  T/C: 98 % of control

## CC(=O)c1ccc2c(=O)c(C(=O)O)c[nH]c2c1
[7]
  T/C: 87 % of control
[8]
  T/C: 91 % of control
[12]
  T/C: 108 % of control
[3]
  T/C: 98 % of control
[4]
  T/C: 104 % of control
